According to patent publication US20200270576A1, “Ex Vivo Maintenance and Expansion of Stem Cells” (priority 2017, published 2020):

What was measured:
[1] = system: Hsf1; test: Hsf1 expression and localization by immunofluorescence in cultured HSCs; format: cell-based, mouse; conditions: 10 days culture; 17-AAG 5 nM, HSF1A 8 uM final concentration
Excerpt: FIG. 14 depicts representative immunofluorescence staining of HSCs cultured for 10 days in the presence or absence of 17-AAG or HSF1A. Addition of 17-AAG or HSF1A to culture medium increased Hsf1 accumulation in the nucleus of cultured HSCs. Hsf1-deficient HSCs and cells stained without primary antibody (Neg Con) are shown as controls.
Since Hsf1 promoted HSC maintenance and protein homeostasis in vitro (FIG. 13), we investigated whether increasing Hsf1 expression or activity would further enhance HSC maintenance. […] Hsf1 can become active as a transcription factor when it translocates to the nucleus. We thus tested whether inhibitors of HSP90 or TRiC would promote Hsf1 accumulation in the nucleus of cultured HSCs by culturing HSCs for 10 days in the presence or absence of 17-AAG (HSP90 inhibitor; 5 nM final concentration) or HSF1A (TRiC inhibitor; 8 uM final concentration), and assessed Hsf1 expression and localization by immunofluorescence.

[2] = system: HSCs; test: TMI fluorescence (unfolded protein abundance) in cultured HSCs; format: cell-based, mouse; conditions: 18 hours in culture
Description: FIG. 15 depicts that addition of 17-AAG to culture medium reduced TMI fluorescence (unfolded protein abundance) within cultured HSCs (18 hour cultures shown).
Hsf1 promoted protein homeostasis maintenance in cultured HSCs (FIG. 13B), and 17-AAG promoted Hsf1 accumulation in cultured HSCs (FIG. 14). We thus investigated whether addition of 17-AAG to culture medium could promote protein homeostasis maintenance in HSCs. To test this, HSCs were cultured in the presence or absence (vehicle only; DMSO) of 17-AAG. After 18 hours in culture, we assessed protein homeostasis by quantifying unfolded protein abundance based on TMI fluorescence.

[3] = system: HSCs; test: Competitive transplantation of HSCs cultured 10 days, with serial transplantation; format: cell-based, murine
Excerpt: FIG. 16A-B depict that HSC functionality is maintained and expanded in vitro by interventions that can induce/activate Hsf1. FIG. 16A depicts donor cell engraftment 16 weeks after transplantation of 10 HSCs cultured for 10 days in the presence or absence of an HSP90 inhibitor (17-AAG) or TRiC inhibitor (HSF1A) or from 10 freshly isolated HSCs. Cells were transplanted with 2×10^5 freshly isolated congenic bone marrow cells (n=3 independent experiments with 3-5 recipients/condition/experiment). […] Addition of either 17-AAG or HSF1A increased the reconstituting potential of cultured HSCs as compared to both control cultured and freshly isolated HSCs.
To test if HSCs depend on Hsf1 for their maintenance in vitro, we conditionally deleted Hsf1 from HSCs, cultured them for 10 days and assessed their long-term multilineage reconstituting activity in competitive transplantation assays. The assay for testing HSC function is to assess their capacity to give long-term (16+ week) multilineage (B cell, T cell and myeloid cell) reconstitution of the blood system of an irradiated transplant recipient. A competitive transplantation assay provides a quantitative readout of HSC regenerative activity.
Modest declines in proteostasis impair HSC maintenance in vivo. […] This raises the possibility that increasing Hsf1 activity could promote HSC maintenance in vitro by enhancing proteostasis capacity. To test if HSP90 inhibitors or TRiC inhibitors promote HSC maintenance in vitro, purified HSCs were sorted from young adult murine bone marrow (CD45.1^+) into 96-well plates (10/well) containing our HSC medium supplemented with 17-AAG or HSF1A. HSCs were cultured for 10 days and competitively transplanted with 2×10^5 freshly isolated congenic bone marrow cells (CD45.2^+) into irradiated mice (CD45.2^+). Recipient mice were bled monthly (for 4 months) to assess levels of donor-derived CD45.1^+ hematopoietic cells. Self-renewal capacity of HSCs was assessed by serially transplanting hematopoietic cells from the primary recipients into secondary irradiated recipients (3×10^6 cells/recipient). […] Similar results are expected for other HSP90 or TRiC inhibitors.
To test if HSP90 inhibitors or TRiC inhibitors enable HSC expansion in vitro, purified HSCs were sorted from young adult bone marrow (CD45.1^+) into 96-well plates (10/well) containing HSC medium supplemented with 17-AAG or HSF1A. HSCs were cultured for 10 days and competitively transplanted with 2×10^5 freshly isolated congenic bone marrow cells (CD45.2^+) into irradiated mice (CD45.2^+). At the same time, 10 freshly isolated HSCs were transplanted with 2×10^5 freshly isolated congenic bone marrow cells into irradiated mice. Recipient mice were bled monthly (for 4 months) to assess levels of donor-derived CD45.1^+ hematopoietic cells. Self-renewal capacity of HSCs was assessed by serially transplanting hematopoietic cells (3×10^6 cells/recipient) into secondary irradiated recipients. […] Similar results are expected for other HSP90 or TRiC inhibitors.

[4] = system: Hsf1-deficient and control HSCs; test: Competitive transplantation of cultured wild-type and Hsf1-deficient HSCs; format: cell-based, mice; conditions: 12 weeks after transplantation
Excerpt: FIG. 17 depicts that Hsf1 is required for 17-AAG and HSF1A to enhance HSC maintenance and expansion in vitro. Donor cell engraftment 12 weeks after transplantation of 10 wild-type and Hsf1-deficient HSCs cultured for 10 days in the presence or absence of 17-AAG, HSF1A or DMSO. Cells were transplanted with 2×10^5 freshly isolated congenic bone marrow cells (n=7-9; *P<0.05, **P<0.01).
We tested whether the positive effects of 17-AAG and HSF1A on HSC maintenance/expansion in vitro were mediated by Hsf1. Purified Hsf1-deficient and control HSCs were sorted from adult bone marrow (CD45.2^+) into 96-well plates (10/well) containing HSC medium supplemented with 17-AAG, HSF1A or vehicle (DMSO). HSCs were cultured for 10 days and competitively transplanted with 2×10^5 freshly isolated congenic bone marrow cells (CD45.1^+) into irradiated mice (CD45.1^+). Recipient mice were bled monthly to assess levels of donor-derived CD45.2^+ hematopoietic cells. […] However, the positive effect of 17-AAG and HSF1A was lost with Hsf1-deficient HSCs (FIG. 17).

[5] = system: CD150+CD48-LSK HSCs; test: Frequency of CD150+CD48-LSK cells in 10-day HSC cultures; format: cell-based, mouse; conditions: 10 HSCs/well, 10 days culture
Description: FIG. 18 depicts that addition of 17-AAG to culture medium increased the frequency of CD150^+CD48^−LSK HSCs in 10-day HSC cultures as compared to controls.
To further test if HSP90 inhibitors promote HSC maintenance/expansion, we cultured purified HSCs (10/well) for 10 days in the presence or absence of 17-AAG, and assessed the frequency of CD150^+CD48^−LSK cells in culture. CD150^+CD48^−LSK cells were about ˜4-fold enriched when 17-AAG was added to the culture medium (FIG. 18). […] Similar results are expected for other HSP90 inhibitors, TRiC inhibitors and agonists of Hsf1.

[6] = system: HSCs; test: Retroviral (MSCV-IRES-GFP) transduction of HSCs, GFP in colonies; format: cell-based, mouse; conditions: medium supplemented with 17-AAG; colonies assessed ten days after plating
Description: FIG. 19 depicts that addition of 17-AAG to culture medium supported highly efficient genetic modification of HSCs. The frequency of HSCs that were transduced with a GFP encoding retrovirus in culture is shown.
We tested whether the presence of HSP90 inhibitors in cell culture medium permitted efficient genetic modification of HSCs. Purified HSCs were cultured overnight in medium supplemented with 17-AAG. Retroviral supernatant (containing retrovirus encoding MSCV-IRES-GFP) was added two times (two hours apart), and the cells were cultured for an additional 24 hours. After culture, the cells were plated in methylcellulose semi-solid medium supplemented with hematopoietic cytokines. Ten days later, individual colonies (derived from single HSCs) were assessed for GFP expression by flow cytometry. […] We expect this will also be true for other HSP90 inhibitors, TRiC inhibitors and Hsf1 agonists. In addition, we expect that these agents will also be compatible for genetic modification of stem cells by other technologies (in addition to retrovirus), including but not limited to lentivirus, CRISPR and other genetic modification or editing technologies.

C=CCNC1=C2C[C@@H](C)C[C@H](OC)[C@H](O)[C@@H](C)/C=C(\C)[C@H](OC(N)=O)[C@@H](OC)/C=C\C=C(/C)C(=O)NC(=CC1=O)C2=O [17-AAG, 17-N-Allylamino-17-demethoxygeldanamycin]
Hsf1 abundance in the nucleus of cultured HSCs [1]: increase Hsf1 abundance in the nucleus | TMI fluorescence (unfolded protein abundance) vs vehicle (DMSO) controls [2]: less TMI fluorescence than controls | donor cell reconstitution vs recipients of freshly isolated HSCs ([3]; 10 HSCs cultured 10 days vs 10 freshly isolated HSCs): higher levels of donor cell reconstitution as compared to recipients of freshly isolated HSCs | donor cell reconstitution in primary recipients vs HSCs cultured without agent ([3]; 10 HSCs cultured 10 days, with 2x10^5 congenic bone marrow cells, 16 weeks): significantly higher levels of donor cell reconstitution as compared to controls | fraction of recipients with long-term multilineage reconstitution vs HSCs cultured without agent ([3]; primary and secondary transplants, 16 week, >0.5% B-, T-, myeloid cells): greater fraction | fraction of recipients with long-term multilineage reconstitution vs freshly isolated HSCs ([3]; secondary transplants): significantly greater fraction | donor cell reconstitution in secondary recipients vs HSCs cultured without agent ([3]; serial transplant, 3x10^6 cells/recipient): even more pronounced | donor cell reconstitution vs controls (DMSO), control HSCs ([4]; 10 HSCs cultured 10 days): higher levels of donor cell reconstitution as compared to controls | positive effect on donor cell reconstitution with Hsf1-deficient HSCs ([4]; Hsf1-deficient HSCs cultured 10 days): lost | enrichment of CD150+CD48-LSK cells vs culture without agent [5]: ~4 fold | colonies in which GFP was detected [6]: 22/25 | frequency of GFP-positive colonies (transduced HSCs) [6]: 88%
